# Laboratory results published in patent publication US9889104B2, “Agent for treating diabetes” (NISHIZAKI BIOINFORMATION RESEARCH INSTITUTE, priority 2014, dated 2018).
# How the values were obtained:
# [1] = tested on: type 1 diabetes model mouse (STZ-treated C57BL/6J mouse); test: Oral glucose tolerance test in type 1 diabetes model mouse; type: in vivo; conditions: DCP-LA 0.001, 0.01, 0.1 mg/kg orally 30 min before glucose 2 g/kg, 0-90 min, FIG. 3A
# Procedure: Type 1 diabetes model mouse was prepared by intraperitoneal administration of streptozotocin (STZ; 250 mg/kg) to C57BL/6J mouse (8-week-old) (Japan SLC Inc.; Shizuoka, Japan). After 4 days from the STZ administration, an oral glucose tolerance test (OGTT) was performed.
# (§1) OGTT was performed using the mouse starved for 12 hr. Glucose (2 g/ml/kg body weight) was administered by gavage, and the time point thereof was taken as 0 h. DCP-LA (0, 0.001, 0.01, 0.1 mg/kg) was orally administered 30 min before administration of glucose. The blood (10 μl) was collected from the tail vein at the time points of 0, 30, 60, and 90 min, and each plasma sample which was labeled with ABEE and prepared from the obtained blood was loaded on high performance liquid chromatography (HPLC) system (LC-10ATvp; Shimadzu Co., Kyoto, Japan). The glucose concentration was calculated from a peak area/concentration analytical curve prepared using the standard glucose solution.
# [2] = tested on: type 2 diabetes model mouse (C57BL/KsJ-lepr^db/lepr^db mouse); test: Oral glucose tolerance test in type 2 diabetes model mouse; type: in vivo; conditions: DCP-LA 0.001, 0.01, 0.1 mg/kg orally 30 min before glucose 2 g/kg, 0-90 min, FIG. 3B
# Procedure: As type 2 diabetes model mouse, C57BL/KsJ-lepr^db/lepr^db mouse (female, 8-week-old) (CLEA Japan; Tokyo, Japan) was used.
# as §1
# [3] = tested on: 3T3L1-GLUT4myc adipocytes; test: Glucose uptake assay in 3T3L1-GLUT4myc adipocytes; type: cell-based; conditions: 2 hr
# Procedure: (§2) 3T3L1-GLUT4myc fibroblast strain expressing GLUT4myc was used. The cells are constructed by inserting human c-MYC epitope (14 amino acids) into the first ectodomain. It is possible to track transport of GLUT4 onto cell membrane surface by using an antic-myc antibody.
# The cells were cultured in Dulbecco's Modified Eagles Medium (DMEM) added with 10% (v/v) bovine serum, penicillin (final concentration, 100 U/ml) and streptomycin (final concentration, 0.1 mg/ml) in a humid environment under 5% CO2 and 95% air at 37° C. […]
# 3T3L1-GLUT4myc adipocytes were incubated in Krebs-Ringer-HEPES buffer [136 mM NaCl, 4.7 mM KCl, 1.25 mM CaCl2, 1.25 mM MgSO4 and 20 mM HEPES, pH 7.5] containing 0.2% (w/v) bovine serum albumin (BSA) and added with 10 mM glucose at 37° C. for […]. […] ABEE-labeled glucose was detected using a fluorescence detector at an excitation wavelength 305 nm and a fluorescence wavelength 360 nm. The amount of glucose uptaken into the cells after incubation for 2 hr is calculated by subtracting the extracellular glucose concentration from the initial extracellular glucose concentration (10 mM).
# 3T3L1-GLUT4myc adipocytes were incubated in glucose-containing (10 mM) PBS in the presence or absence of a given concentration of DCP-LA for 2 hr, and extracellular glucose concentration was measured by HPLC. […]
# [4] = tested on: GLUT4; test: GLUT4 mobilization monitoring (Western blotting with anti-c-myc antibody); type: cell-based; conditions: 100 nM DCP-LA, 20 min; c-myc signal in cellular membrane fraction/total cell; FIG. 2
# Procedure: as §2
# The cells were cultured in Dulbecco's Modified Eagles Medium (DMEM) added with 10% (v/v) bovine serum, penicillin (final concentration, 100 U/ml) and streptomycin (final concentration, 0.1 mg/ml) in a humid environment under 5% CO2 and 95% air at 37° C. When the cells reached confluence (day 0), the medium was exchanged with DMEM added with 10% (v/v) fetal bovine serum (FBS), 1 μM dexamethasone, 0.5 mM 3-isobutyl-methyl-xanthine and 0.1 mg/ml insulin to allow for differentiation from fibroblast into adipocyte. The medium was exchanged with DMEM added with 10% (v/v) FBS on day 3, day 7 and day 11. On day 14, the cell differentiated into adipocyte were used for the experiment. […]
# The protein concentration of each fraction was measured using BCA protein assay kit (Thermo Fisher Scientific, Waltham, Mass., USA). […] The immunoreactivity was detected using ECL kit (Invitrogen), and visualized using a chemical luminescence detection system (chemiluminescence detection system; GE Healthcare, Piscataway, N.J., USA). The signal density was measured using an image analysis software (Image Gauge software; GE Healthcare). […]
structure (smiles),measurement,setting,value
"CCCCCC1CC1CC1CC1CCCCCCCC(=O)O (centres unmarked) [DCP-LA, 8-[2-(2-pentyl-cyclopropylmethyl)-cyclopropyl]-octanoic acid]",blood glucose level,[1],dose-dependently lower the blood glucose level
same,blood glucose level,[2],dose-dependently lower the blood glucose level
same,sugar uptake promoting action in the presence of PKCε inhibitor GF109203X,"[3]; 0.1 μM DCP-LA with 0.1 μM GF109203X, FIG. 1B",not inhibited
same,glucose uptake into the cells,"[3]; 3T3L1-GLUT4myc adipocytes, 10 mM glucose PBS, given concentrations of DCP-LA, HPLC, FIG. 1A",promote sugar uptake into the adipocytes in a bell-shaped concentration-dependent manner
same,transport of GLUT4 onto the cellular membrane,[4],not promoted significantly
